The values below come from US20170008928A1, “NOVEL PEPTIDES AND PEPTIDE DERIVATIVES AND USES THEREOF” (Novo Nordisk A/S, priority 2015, published 2017).

Structures are written as SMILES. Read-outs that look alike come from different tables or passages of the source. Non-standard residues stand in square brackets, D forms with d. Residues, ends and D or L forms follow the SMILES beside them. Phe(4-CH2SO3H) = N[C@@H](Cc1ccc(CS(=O)(=O)O)cc1)C(=O)O; sY = N[C@@H](Cc1ccc(OS(=O)(=O)O)cc1)C(=O)O; NMeF = CN[C@@H](Cc1ccccc1)C(=O)O; dNMeD = CN[C@H](CC(=O)O)C(=O)O; Nle = CCCC[C@H](N)C(=O)O

In experiment [1] the target is T1, human cholecystokinin-2 receptor (CCK-2R) (Homo sapiens, UniProt P32239).
T1 construct: host or cells: 1321-N1 cells (plasma membranes prepared by Evotec AG Hamburg)
T1 sequence (P32239 1-447): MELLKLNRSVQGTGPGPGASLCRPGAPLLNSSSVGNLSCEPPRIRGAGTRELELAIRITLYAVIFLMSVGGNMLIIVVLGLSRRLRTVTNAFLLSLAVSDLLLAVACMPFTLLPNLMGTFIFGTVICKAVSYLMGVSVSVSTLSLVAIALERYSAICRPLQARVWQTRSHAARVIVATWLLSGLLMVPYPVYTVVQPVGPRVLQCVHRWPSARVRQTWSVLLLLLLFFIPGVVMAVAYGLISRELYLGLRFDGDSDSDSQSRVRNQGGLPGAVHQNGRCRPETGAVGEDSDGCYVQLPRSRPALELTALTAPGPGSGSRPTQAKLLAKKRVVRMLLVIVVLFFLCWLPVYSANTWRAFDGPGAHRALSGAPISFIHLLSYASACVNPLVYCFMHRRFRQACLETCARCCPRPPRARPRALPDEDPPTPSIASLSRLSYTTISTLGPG
In words: In vitro potency on CCK-2R, whole cell functional assay (IP1 accumulation, IP-One HTRF). It is filed as cell-based.

Experiment [2] deals with T1, human cholecystokinin-2 receptor (CCK-2R). Kind of experiment: In vitro receptor binding to CCK-2R, SPA displacement of [125I]-CCK-8s from plasma membranes. On the procedure: The in vitro binding affinity is a measure of the strength of attraction between a receptor and its ligand.
Displacement of radio ligand was measured as reduction in light emission from SPA beads.
The cells used in these assays were 1321-N1 cells stably expressing the CCK-1R or the CCK-2R (Perkin Elmer product numbers ES-530-A and ES-531-A, respectively see www.perkinelmer.com/Catalog/Product/ID/ES-530-A or -ES-531-A, respectively).
The cells were cultured in an incubator (95% RH (relative humidity), 5% (of standard atmospheric pressure) CO2, 37° C.) in cell culture medium (DMEM (Lonza catalogue BE-12-604F/U1), with 10% (v/v) Foetal Calf Serum (FCS, Gibco catalogue 16140-071), 1% (w/w) Sodium pyruvate (Gibco catalogue 11360-039), 500 μg/ml Geneticin® (G418) (Gibco catalogue 10131-027), 25 μg/ml Zeocin™ (Invitrogen catalogue R250-05), 1% (w/w) Pen/Strep (Gibco catalogue 15140-122)).
Plasma membranes were prepared by Evotec AG Hamburg by use of the ParrBomb (#4635, Parr Instrument Company). Cells were lysed with a lysis buffer (50 mM Tris, 2.5 mM EDTA, pH7) with added protease inhibitors (Complete Proteaseinhibitors EDTA-free (#05056489001, Roche), 1 tablet per 50 mL lysis buffer). The membrane fraction was separated by centrifugation. First, the cell lysate was centrifuged at 1000×g for 10 minutes at 4° C. The pellet was discarded and the supernatant was then centrifuged at 100.000×g for 30 minutes at 4° C. The supernatant was discarded and the pellet was re-suspended in 1 ml/5×10^8 cells ice cold membrane buffer (50 mM Tris, 320 mM Sucrose and Complete Proteaseinhibitors EDTA-free (#05056489001, Roche); pH7.4) and homogenised with dounce homogeniser. The protein concentration was determined using the Pierce™ BCA Protein Assay Kit according to kit manual, and the membrane preparation was adjust to the desired protein concentration with membrane buffer and aliquoted into pre-cooled tubes, snap-frozen in liquid nitrogen, and stored at −80° C.
CCK receptor binding assays were performed in 96-well Optiplates (Cat #6005290, PerkinElmer, Waltham, Mass., USA) in a total volume of 200 μl per well. CCK derivatives in 80% DMSO stock solutions of 800 μM were serially diluted […] in assay buffer (50 mM Tris/HCl, 4.5 mM MgCl2, […], 0.02% Tween 20, 0.25% ovalbumin, 0.1% pluronic F-68, pH 7.4) to final assay concentrations ranging from 10^−5 M (ten μM) to 10^−12 M (one pM).
Fifty μl of reference or test compounds were added to the Optiplates (using technical duplicates, i.e. two wells of each sample, one data point being the average of two wells), followed by addition of 150 μl of the mixture of SPA bead, radio ligand, and plasma membrane. The plates were sealed and incubated in the dark at +22° C. for 2 hours on a IKA MTS plate shaker (IKA-Werke D-79219 Staufen) set at 300 rpm and thereafter centrifuged at 1500 rpm for 10 minutes in a Heraeus Multifuge 3s centrifuge. SPA bead light emission was measured in a TopCount NXT (PerkinElmer) for 2 min/well after a delay of 60 min.
As a measure of compound affinity, calculations were performed in order to determine the half maximal inhibitory concentration (the IC50 value).
The data from the TopCounter were given as counts per minute (CPM). The CPM was plotted as a function of the concentration of compound. Dose-response curves were obtained, and IC50 values were calculated, by a nonlinear three-parameter logistic equation (log(agonist) vs response) with hillslope=−1, and shared top and bottom using the software programme GraphPad Prism v 6.0 (Graph Pad software, La Jolla, Calif., USA). The highest dose tested was 10^−5 M (1×10^7 pM).
The preference of a specific compound for the CCK-1 receptor, or the CCK-1R selectivity, may be defined as IC50 (CCK-2R)/IC50 (CCK-1R).
A minimum of three biological replicates was measured for each test compound on separate assay plates.

Setting [3] is: 1321-N1 cells stably expressing CCK-2R, IP1 accumulation, highest dose tested 1×10^6 pM, read-out: EC50 (CCK-2R).
Where [4] appears, read: displacement of [125I]-CCK-8s, plasma membranes of 1321-N1 cells expressing CCK-2R, highest dose tested 1×10^7 pM, read-out: IC50 (CCK-2R).

Turning to `CCCC[C@H](NC(=O)[C@H](Cc1c[nH]c2ccccc12)NC(=O)CNC(=O)[C@H](CC(C)C)NC(=O)[C@H](Cc1ccc(OS(=O)(=O)O)cc1)NC(=O)[C@H](CC(=O)O)NC(=O)CC[C@H](NC(=O)COCCOCCNC(=O)COCCOCCNC(=O)CC[C@H](NC(=O)CCCCCCCCCCCCCCCCC(=O)O)C(=O)O)C(=O)O)C(=O)N(C)[C@H](CC(=O)O)C(=O)N(C)[C@@H](Cc1ccccc1)C(N)=O` [Example 32, (4S)-4-Carboxy-4-[[2-[2-[2-[[2-[2-[2-[[(4S)-4-carboxy-4-(17-carboxyheptadecanoylamino)butanoyl]amino]ethoxy]ethoxy]acetyl]amino]ethoxy]ethoxy]acetyl]amino]butanoyl-Asp-sTyr-Leu-Gly-Trp-Nle-DMeAsp-MePhe-amide], in experiment [1] (setting [3]), the EC50 was 0.046 µM. Besides, the IC50 in experiment [2] (setting [4]) was found to be 0.38 µM.

Take `CC(C)C[C@H](NC(=O)[C@H](Cc1ccc(OS(=O)(=O)O)cc1)NC(=O)[C@H](CCC(=O)O)NC(=O)COCCOCCNC(=O)COCCOCCNC(=O)CC[C@H](NC(=O)CCCCCCCCCCCCCCCCC(=O)O)C(=O)O)C(=O)NCC(=O)N[C@@H](Cc1c[nH]c2ccccc12)C(=O)N[C@@H](CCC(N)=O)C(=O)N(C)[C@H](CC(=O)O)C(=O)N[C@@H](Cc1ccccc1)C(N)=O` [Example 41, 2-[2-[2-[[2-[2-[2-[[(4S)-4-Carboxy-4-(17-carboxyheptadecanoylamino)butanoyl]amino]ethoxy]ethoxy]acetyl]amino]ethoxy]ethoxy]acetyl-Glu-sTyr-Leu-Gly-Trp-Gln-DMeAsp-Phe-amide]: the 50% effective concentration (EC50) in experiment [1] (setting [3]) was > 1 µM. Also, the IC50 in experiment [2] (setting [4]) was > 10 µM.

For `CCCC[C@H](NC(=O)[C@H](Cc1c[nH]c2ccccc12)NC(=O)CNC(=O)[C@H](CC(C)C)NC(=O)[C@H](Cc1ccc(CS(=O)(=O)O)cc1)NC(=O)[C@@H](N)CC(=O)O)C(=O)N(C)[C@H](CC(=O)O)C(=O)N(C)[C@@H](Cc1ccccc1)C(N)=O` [Example 57, Asp-Phe(4-sulfomethyl)-Leu-Gly-Trp-Nle-DMeAsp-MePhe-amide] (H-D[Phe(4-CH2SO3H)]LGW[Nle][dNMeD][NMeF]-NH2), in experiment [1] (setting [3]), the EC50 is > 1 µM. For the same compound, the half-maximal inhibitory concentration (IC50) in experiment [2] (setting [4]) was > 10 µM.

For `CC[C@H](C)[C@H](NC(=O)[C@H](Cc1c[nH]c2ccccc12)NC(=O)CNC(=O)[C@H](CC(C)C)NC(=O)[C@H](Cc1ccc(OS(=O)(=O)O)cc1)NC(=O)[C@@H](N)CC(=O)O)C(=O)N(C)[C@H](CC(=O)O)C(=O)N(C)[C@@H](Cc1ccccc1)C(N)=O` [Example 61, Asp-sTyr-Leu-Gly-Trp-Ile-DMeAsp-MePhe-amide] (H-D[sY]LGWI[dNMeD][NMeF]-NH2), the half-maximal effective concentration (EC50) in experiment [1] is > 1 µM. Moreover, in experiment [2], the IC50 is 6.1 µM.

Turning to `CC(C)C[C@H](NC(=O)[C@H](Cc1ccc(OS(=O)(=O)O)cc1)NC(=O)[C@@H](N)CC(=O)O)C(=O)NCC(=O)N[C@@H](Cc1c[nH]c2ccccc12)C(=O)N1CCC[C@H]1C(=O)N(C)[C@H](CC(=O)O)C(=O)N(C)[C@@H](Cc1ccccc1)C(N)=O` [Example 66, Asp-sTyr-Leu-Gly-Trp-Pro-DMeAsp-MePhe-amide] (H-D[sY]LGWP[dNMeD][NMeF]-NH2), the concentration giving a half-maximal response (EC50) in experiment [1] is > 1 µM. Also, the IC50 in experiment [2] is > 10 µM.

As for `CCCC[C@H](NC(=O)[C@H](Cc1c[nH]c2ccccc12)NC(=O)CNC(=O)[C@H](CCCCN)NC(=O)[C@H](Cc1ccc(OS(=O)(=O)O)cc1)NC(=O)[C@@H](N)CC(=O)O)C(=O)N(C)[C@H](CC(=O)O)C(=O)N(C)[C@@H](Cc1ccccc1)C(N)=O` [Example 67, Asp-sTyr-Lys-Gly-Trp-Nle-DMeAsp-MePhe-amide] (H-D[sY]KGW[Nle][dNMeD][NMeF]-NH2), the EC50 in experiment [1] (setting [3]) was > 1 µM. The IC50 in experiment [2] (setting [4]) was > 10 µM.

As for `CCCC[C@H](NC(=O)[C@@H](N)Cc1ccc(OS(=O)(=O)O)cc1)C(=O)NCC(=O)N[C@@H](Cc1c[nH]c2ccccc12)C(=O)N[C@@H](CCCC)C(=O)N(C)[C@H](CC(=O)O)C(=O)N(C)[C@@H](Cc1ccccc1)C(N)=O` [Example 72, sTyr-Nle-Gly-Trp-Nle-DMeAsp-MePhe-amide] (H-[sY][Nle]GW[Nle][dNMeD][NMeF]-NH2; N-terminus assumed), the EC50 in experiment [1] (setting [3]) is > 1 µM. Moreover, the IC50 in experiment [2] (setting [4]) is > 10 µM.

Regarding `CCCC[C@H](NC(=O)[C@H](Cc1c[nH]c2ccccc12)NC(=O)CNC(=O)[C@@H](NC(=O)[C@H](Cc1ccc(OS(=O)(=O)O)cc1)NC(=O)[C@@H](N)CC(=O)O)[C@@H](C)CC)C(=O)N(C)[C@H](CC(=O)O)C(=O)N(C)[C@@H](Cc1ccccc1)C(N)=O` [Example 81, Asp-sTyr-Ile-Gly-Trp-Nle-DMeAsp-MePhe-amide] (H-D[sY]IGW[Nle][dNMeD][NMeF]-NH2), the EC50 in experiment [1] (setting [3]) was > 1 µM. Besides, the IC50 in experiment [2] (setting [4]) is > 10 µM.

For `CCCC[C@H](NC(=O)[C@H](Cc1c[nH]c2ccccc12)NC(=O)CNC(=O)[C@H](Cc1c[nH]cn1)NC(=O)[C@H](Cc1ccc(OS(=O)(=O)O)cc1)NC(=O)[C@@H](N)CC(=O)O)C(=O)N(C)[C@H](CC(=O)O)C(=O)N(C)[C@@H](Cc1ccccc1)C(N)=O` [Example 82, Asp-sTyr-His-Gly-Trp-Nle-DMeAsp-MePhe-amide] (H-D[sY]HGW[Nle][dNMeD][NMeF]-NH2), the EC50 in experiment [1] (setting [3]) is > 1 µM. Besides, in experiment [2] (setting [4]), the IC50 is > 10 µM.

Consider `CC(C)C[C@H](NC(=O)[C@H](Cc1ccc(OS(=O)(=O)O)cc1)NC(=O)[C@@H](N)CCC(=O)O)C(=O)NCC(=O)N[C@@H](Cc1c[nH]c2ccccc12)C(=O)N[C@@H](CCC(N)=O)C(=O)N(C)[C@H](CC(=O)O)C(=O)N[C@@H](Cc1ccccc1)C(N)=O` [Example 85, Glu-sTyr-Leu-Gly-Trp-Gln-DMeAsp-Phe-amide], for which the EC50 in experiment [1] (setting [3]) is > 1 µM. The IC50 in experiment [2] (setting [4]) is > 10 µM.

Regarding `CC(C)C[C@H](NC(=O)[C@H](Cc1ccc(OS(=O)(=O)O)cc1)NC(=O)[C@@H](N)CCC(=O)O)C(=O)NCC(=O)N[C@@H](Cc1c[nH]c2ccccc12)C(=O)N[C@@H](CCC(N)=O)C(=O)N(C)[C@H](CC(=O)O)C(=O)N(C)[C@@H](Cc1ccccc1)C(N)=O` [Example 86, Glu-sTyr-Leu-Gly-Trp-Gln-DMeAsp-MePhe-amide], in experiment [1] (setting [3]), the EC50 was > 1 µM. In experiment [2] (setting [4]), the IC50 is > 10 µM.

For the compound `CCCC[C@H](NC(=O)[C@H](Cc1c[nH]c2ccccc12)NC(=O)CNC(=O)[C@H](CC(C)C)NC(=O)[C@H](Cc1ccc(OS(=O)(=O)O)cc1)NC(=O)[C@H](N)CCC(=O)O)C(=O)N(C)[C@H](CC(=O)O)C(=O)N(C)[C@@H](Cc1ccccc1)C(N)=O` [Example 87, DGlu-sTyr-Leu-Gly-Trp-Nle-DMeAsp-MePhe-amide] (H-[dE][sY]LGW[Nle][dNMeD][NMeF]-NH2), in experiment [1] (setting [3]), the EC50 is > 1 µM. Besides, in experiment [2] (setting [4]), the half-inhibitory concentration (IC50) was > 10 µM.
